The record followed here is patent US20070213346A1, “Substituted 4-Alkyl-And 4-Alkanoyl-Piperidine Derivatives And Their Use As Neurokinin Antagonists” (priority 2004, published 2007).

Experiment [1] deals with NK1 (Homo sapiens, UniProt P25103). Briefly: Signal transduction (ST), intracellular Ca++ FLIPR, NK1. It is filed as cell-based. To be noted: antagonist, Ca++ transient peak, read-out: NK1 pIC50 (converted). On the procedure:
(§1) This test evaluates in vitro functional NK1 antagonistic activity. For the measurements of intracellular Ca^++ concentrations the cells were grown on 96-well (black wall/transparent bottom) plates from Costar for 2 days until they reached confluence. The cells were loaded with 2 μM Fluo3 in DMEM containing 0.1% BSA and 2.5 mM probenecid for 1 h at 37° C. They were washed 3× with a Krebs buffer (140 mM NaCl, 1 mM MgCl2x6H2O, 5 mM KCl, 10 mM glucose, 5 mM HEPES; 1.25 mM CaCl2; pH 7.4) containing 2.5 mM probenecid and 0.1% BSA (Ca^++-buffer). The cells were preincubated with a concentration range of antagonists for 20 min at RT and Ca^++-signals after addition of the agonists were measured in a Fluorescence Image Plate Reader (FLIPR from Molecular Devices, Crawley, England). The peak of the Ca^++-transient was considered as the relevant signal and the mean values of corresponding wells were analysed as described below.
The sigmoidal dose response curves were analysed by computerised curve-fitting, using the GraphPad program. The EC50-value of a compound is the effective dose showing 50% of maximal effect. For mean curves the response to the agonist with the highest potency was normalised to 100%. For antagonist responses the IC50-value was calculated using non-linear regression. […]

For experiment [2], the target named is T1, NK3 (Homo sapiens, UniProt P29371).
T1 sequence (P29371 1-465): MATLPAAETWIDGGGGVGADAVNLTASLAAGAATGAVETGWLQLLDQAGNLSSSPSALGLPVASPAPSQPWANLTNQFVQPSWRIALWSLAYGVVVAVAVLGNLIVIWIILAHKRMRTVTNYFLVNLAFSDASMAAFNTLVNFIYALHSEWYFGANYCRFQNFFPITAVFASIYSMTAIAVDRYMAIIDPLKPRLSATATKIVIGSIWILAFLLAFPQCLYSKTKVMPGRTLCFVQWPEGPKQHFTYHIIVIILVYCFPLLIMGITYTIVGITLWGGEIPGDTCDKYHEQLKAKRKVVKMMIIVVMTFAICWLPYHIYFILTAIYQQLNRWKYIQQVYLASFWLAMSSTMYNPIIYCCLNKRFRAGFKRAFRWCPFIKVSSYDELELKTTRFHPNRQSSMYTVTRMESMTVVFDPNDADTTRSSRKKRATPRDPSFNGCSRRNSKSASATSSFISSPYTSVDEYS
Put plainly: Signal transduction (ST), intracellular Ca++ FLIPR, NK3. It is filed as cell-based. To be noted: antagonist, Ca++ transient peak, read-out: NK3 pIC50 (converted). How it is done: [The source words this procedure for another target and reports this target under the same test.] as §1
The sigmoidal dose response curves were analysed by computerised curve-fitting, using the GraphPad program. The EC50-value of a compound is the effective dose showing 50% of maximal effect. For mean curves the response to the agonist with the highest potency was normalised to 100%. For antagonist responses the IC50-value was calculated using non-linear regression.
The last columns indicates—without being limited thereto—for which use the compounds might be most suitable. Of course, since for some neurokinin receptors no data was determined, it is obvious that these compounds might be attributed to another suitable use.

NK1, sequence (P25103 whole entry): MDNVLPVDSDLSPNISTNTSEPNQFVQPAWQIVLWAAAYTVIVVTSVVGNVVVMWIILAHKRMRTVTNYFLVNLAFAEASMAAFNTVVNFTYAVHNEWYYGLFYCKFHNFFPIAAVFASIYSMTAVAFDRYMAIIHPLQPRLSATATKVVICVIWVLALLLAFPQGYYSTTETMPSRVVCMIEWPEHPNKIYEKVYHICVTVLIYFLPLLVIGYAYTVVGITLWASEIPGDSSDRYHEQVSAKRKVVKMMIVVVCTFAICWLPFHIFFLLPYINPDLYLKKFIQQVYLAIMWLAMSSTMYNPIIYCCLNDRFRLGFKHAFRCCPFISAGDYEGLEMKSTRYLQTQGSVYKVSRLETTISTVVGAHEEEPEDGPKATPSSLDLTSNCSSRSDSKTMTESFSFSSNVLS

As to `CC(C)(C)OC(=O)N1CCC(N2CCN(C(=O)CC3CCN(C(=O)c4cc(C(F)(F)F)cc(C(F)(F)F)c4)[C@@H](Cc4ccccc4)C3)CC2)C1` (mixture of isomers) [Compound 7], the IC50 is 174 nM in experiment [1] and above 10000 nM in experiment [2].

Consider `O=C(CC1CCN(C(=O)c2cc(C(F)(F)F)cc(C(F)(F)F)c2)[C@@H](Cc2ccccc2)C1)N1CCN(C2CCN(C(=O)C3CCOC3)C2)CC1` (mixture of isomers) [Compound 73], for which the IC50 is 41.7 nM in experiment [1] and above 10000 nM in experiment [2].

As for `O=C(c1cc2ccccc2oc1=O)N1CCC(N2CCN(C[C@H]3CCN(C(=O)c4cc(C(F)(F)F)cc(C(F)(F)F)c4)[C@H](Cc4ccccc4)C3)CC2)CC1` (relative stereo) [Compound 50], the IC50 in experiment [1] was 91.2 nM.

With `O=C(C1CCN(C(=O)c2cc(C(F)(F)F)cc(C(F)(F)F)c2)C(Cc2ccccc2)C1)N1CCN(C2CCN(Cc3ccccc3)CC2)CC1` (stereo not drawn) [Compound 3], the IC50 in experiment [1] was 347 nM; in experiment [2] it was above 10000 nM.

Consider `O=C(C1CCN(C(=O)c2cc(C(F)(F)F)cc(C(F)(F)F)c2)C(Cc2ccccc2)C1)N1CCN(C2CCNCC2)CC1` (stereo not drawn) [Compound 4], for which the IC50 in experiment [1] is 251 nM; in experiment [2] it was above 10000 nM.

For `CC(C)(C)OC(=O)N1CCC(N2CCN(CC3CCN(C(=O)c4cc(C(F)(F)F)cc(C(F)(F)F)c4)C(Cc4ccccc4)C3)CC2)CC1` (stereo not drawn) [Compound 5], the IC50 in experiment [1] was 209 nM; in experiment [2], above 10000 nM.

In the case of `O=C(CC1CCN(C(=O)c2cc(C(F)(F)F)cc(C(F)(F)F)c2)C(Cc2ccccc2)C1)N1CCN(C2CCNC2)CC1` (stereo not drawn) [Compound 8], the IC50 in experiment [1] was 302 nM; in experiment [2], above 10000 nM.

As for `Cc1cc(C)cc(C(=O)N2CCC(N3CCN(CC4CCN(C(=O)c5cc(C(F)(F)F)cc(C(F)(F)F)c5)C(Cc5ccccc5)C4)CC3)CC2)c1` (stereo not drawn) [Compound 12], the IC50 in experiment [1] is 316 nM.

As to `O=C(C1CCN(C(=O)c2cc(C(F)(F)F)cc(C(F)(F)F)c2)C(Cc2ccccc2)C1)N1CCN(C2CCN(S(=O)(=O)c3cccs3)C2)CC1` (stereo not drawn) [Compound 13], the IC50 was 13.2 nM in experiment [1] and 2510 nM in experiment [2].

Consider `O=C(c1ccc2ccccc2n1)N1CCC(N2CCN(CC3CCN(C(=O)c4cc(C(F)(F)F)cc(C(F)(F)F)c4)C(Cc4ccccc4)C3)CC2)CC1` (stereo not drawn) [Compound 16], for which, in experiment [1], the IC50 is 138 nM.

Regarding `Cn1cccc1C(=O)N1CCC(N2CCN(CC3CCN(C(=O)c4cc(C(F)(F)F)cc(C(F)(F)F)c4)C(Cc4ccccc4)C3)CC2)CC1` (stereo not drawn) [Compound 33], the IC50 in experiment [1] is 224 nM.

Regarding `Cn1cccc1C(=O)N1CCC(N2CCN(C[C@H]3CCN(C(=O)c4cc(C(F)(F)F)cc(C(F)(F)F)c4)[C@H](Cc4ccccc4)C3)CC2)CC1` [Compound 34], the IC50 in experiment [1] is 209 nM.

As for `Cc1cc(C(=O)N2CCC(N3CCN(C[C@H]4CCN(C(=O)c5cc(C(F)(F)F)cc(C(F)(F)F)c5)[C@H](Cc5ccccc5)C4)CC3)CC2)no1` [Compound 36], in experiment [1], the IC50 was 46.8 nM.

Consider `Cn1cc(C(=O)N2CCC(N3CCN(CC4CCN(C(=O)c5cc(C(F)(F)F)cc(C(F)(F)F)c5)C(Cc5ccccc5)C4)CC3)CC2)c2ccccc21` (stereo not drawn) [Compound 40], for which the IC50 in experiment [1] was 347 nM.

Regarding `Cc1cccc(C(=O)N2CCC(N3CCN(C[C@H]4CCN(C(=O)c5cc(C(F)(F)F)cc(C(F)(F)F)c5)[C@H](Cc5ccccc5)C4)CC3)CC2)c1` [Compound 41], the IC50 in experiment [1] is 166 nM.

With `O=C(c1ccccc1O)N1CCC(N2CCN(CC3CCN(C(=O)c4cc(C(F)(F)F)cc(C(F)(F)F)c4)C(Cc4ccccc4)C3)CC2)CC1` (stereo not drawn) [Compound 43], the IC50 in experiment [1] was 123 nM.

Regarding `O=C(c1cccc(O)c1)N1CCC(N2CCN(CC3CCN(C(=O)c4cc(C(F)(F)F)cc(C(F)(F)F)c4)C(Cc4ccccc4)C3)CC2)CC1` (stereo not drawn) [Compound 44], the IC50 in experiment [1] is 87.1 nM.

As for `O=C(c1ccccn1)N1CCC(N2CCN(C[C@H]3CCN(C(=O)c4cc(C(F)(F)F)cc(C(F)(F)F)c4)[C@H](Cc4ccccc4)C3)CC2)CC1` [Compound 47], the IC50 in experiment [1] is 204 nM.

As to `O=C(Cc1c[nH]cn1)N1CCC(N2CCN(CC3CCN(C(=O)c4cc(C(F)(F)F)cc(C(F)(F)F)c4)C(Cc4ccccc4)C3)CC2)CC1` (stereo not drawn) [Compound 51], the IC50 in experiment [1] was 120 nM.

`COc1cc(CC(=O)N2CCC(N3CCN(CC4CCN(C(=O)c5cc(C(F)(F)F)cc(C(F)(F)F)c5)C(Cc5ccccc5)C4)CC3)CC2)cc(OC)c1OC` (stereo not drawn) [Compound 53]: in experiment [1], the IC50 is 85.1 nM.

As to `O=C(c1ccoc1)N1CCC(N2CCN(C(=O)[C@H]3CCN(C(=O)c4cc(C(F)(F)F)cc(C(F)(F)F)c4)[C@H](Cc4ccccc4)C3)CC2)CC1` [Compound 57], the IC50 in experiment [1] was 22.9 nM; in experiment [2], 2450 nM.

With `Cc1nnsc1C(=O)N1CCC(N2CCN(C(=O)[C@H]3CCN(C(=O)c4cc(C(F)(F)F)cc(C(F)(F)F)c4)[C@H](Cc4ccccc4)C3)CC2)CC1` [Compound 58], the IC50 in experiment [1] was 8.71 nM; in experiment [2] it was above 10000 nM.

Take `O=C(c1ccccc1)N1CCC(N2CCN(C(=O)[C@H]3CCN(C(=O)c4cc(C(F)(F)F)cc(C(F)(F)F)c4)[C@H](Cc4ccccc4)C3)CC2)CC1` [Compound 59]: the IC50 was 10.7 nM in experiment [1] and 9550 nM in experiment [2].

On to `O=C([C@H]1CCN(C(=O)c2cc(C(F)(F)F)cc(C(F)(F)F)c2)[C@H](Cc2ccccc2)C1)N1CCN(C2CCNC2)CC1` (stereo partly drawn) [Compound 66], for which the IC50 in experiment [1] was 214 nM; in experiment [2] it was 6760 nM.

In the case of `O=C([C@H]1CCN(C(=O)c2cc(C(F)(F)F)cc(C(F)(F)F)c2)[C@H](Cc2ccccc2)C1)N1CCN(C2CCN(Cc3ccccc3)C2)CC1` (stereo partly drawn) [Compound 67], the IC50 in experiment [1] was 75.9 nM; in experiment [2] it was above 10000 nM.

In the case of `O=C(C1CC1)N1CCC(N2CCN(C(=O)[C@H]3CCN(C(=O)c4cc(C(F)(F)F)cc(C(F)(F)F)c4)[C@H](Cc4ccccc4)C3)CC2)C1` (stereo partly drawn) [Compound 68], the IC50 in experiment [1] was 13.2 nM; in experiment [2] it was 6610 nM.

In the case of `O=C(C1CCOC1)N1CCC(N2CCN(C(=O)[C@H]3CCN(C(=O)c4cc(C(F)(F)F)cc(C(F)(F)F)c4)[C@H](Cc4ccccc4)C3)CC2)C1` (stereo partly drawn) [Compound 69], the IC50 in experiment [1] was 39.8 nM; in experiment [2], 6030 nM.

Regarding `O=C(c1ccoc1)N1CCC(N2CCN(C(=O)[C@H]3CCN(C(=O)c4cc(C(F)(F)F)cc(C(F)(F)F)c4)[C@H](Cc4ccccc4)C3)CC2)C1` (stereo partly drawn) [Compound 70], the IC50 in experiment [1] was 25.7 nM; in experiment [2], above 10000 nM.

Regarding `O=C(c1ccccc1Cl)N1CCC(N2CCN(C(=O)[C@H]3CCN(C(=O)c4cc(C(F)(F)F)cc(C(F)(F)F)c4)[C@H](Cc4ccccc4)C3)CC2)C1` (stereo partly drawn) [Compound 72], the figures for the IC50 in experiment [1] and in experiment [2] were 31.6 nM and above 10000 nM, respectively.

In the case of `COC1(CN2CCN(C3CCNC3)CC2)CCN(C(=O)c2cc(C(F)(F)F)cc(C(F)(F)F)c2)C(Cc2ccccc2)C1` (stereo not drawn) [Compound 81], the IC50 is 200 nM in experiment [1] and above 10000 nM in experiment [2].

Consider `COC1(CN2CCN(C3CCN(C(=O)c4ccoc4)C3)CC2)CCN(C(=O)c2cc(C(F)(F)F)cc(C(F)(F)F)c2)C(Cc2ccccc2)C1` (stereo not drawn) [Compound 85], for which the IC50 in experiment [1] was 64.6 nM; in experiment [2], above 10000 nM.

For `COC1(CN2CCN(C3CCN(C(=O)c4snnc4C)C3)CC2)CCN(C(=O)c2cc(C(F)(F)F)cc(C(F)(F)F)c2)C(Cc2ccccc2)C1` (stereo not drawn) [Compound 86], the IC50 in experiment [1] was 67.6 nM; in experiment [2] it was 10200 nM.

In the case of `COC1(CN2CCN(C3CCN(C(=O)c4ccccc4)C3)CC2)CCN(C(=O)c2cc(C(F)(F)F)cc(C(F)(F)F)c2)C(Cc2ccccc2)C1` (stereo not drawn) [Compound 87], the IC50 in experiment [1] is 115 nM; in experiment [2], above 10000 nM.

In the case of `COC1(CN2CCN(C3CCN(C(=O)c4cccnc4)C3)CC2)CCN(C(=O)c2cc(C(F)(F)F)cc(C(F)(F)F)c2)C(Cc2ccccc2)C1` (stereo not drawn) [Compound 88], the IC50 in experiment [1] is 61.7 nM; in experiment [2], above 10000 nM.

In the case of `COC1(CN2CCN(C3CCN(S(=O)(=O)c4c(C)noc4C)C3)CC2)CCN(C(=O)c2cc(C(F)(F)F)cc(C(F)(F)F)c2)C(Cc2ccccc2)C1` (stereo not drawn) [Compound 89], the IC50 in experiment [1] is 60.3 nM; in experiment [2], 3550 nM.
